Series [1] is classed as in vivo, human (healthy subjects). To be noted: for AUC(0-inf): AUCinf.
For series [2] the following is noted: cited from earlier work.
Series [3] concerns organic anion transporter protein 1B1 (OATP1B1). To be noted: in vitro studies; cited from earlier work.
The conditions of series [4]: on a molar basis; ref data on file; cited from earlier work.
For series [5] the following is noted: healthy volunteers; cited from earlier work.
Series [6] has as its system P-glycoprotein (P-gp; MDR1). To be noted: in vitro studies; cited from earlier work.
For series [7] the following is noted: single 60-mg dose, healthy subjects, 14 phase 1 studies; cited from earlier work.
[8] abbreviates: SLCO1B1 rs4149056 C-carriers vs TT homozygotes, with 90% CI.
Where [9] appears, read: SLCO1B1 rs4149056 C-carriers, single 60-mg edoxaban, mean±s.d.
Setting [10] is: SLCO1B1 rs4149056 TT, M4 to edoxaban, adjusted for molecular weights, mean±s.d.
The mark [11] stands for this setting: SLCO1B1 rs4149056 TT, single 60-mg edoxaban, mean±s.d.
Setting [12] is: single 60-mg edoxaban, healthy subjects.
Setting [13] is: ABCB1 rs1045642 CT, single 60-mg edoxaban, mean±s.d.

Read-outs that look alike come from different tables or passages of the source.

These results are taken from PMC5817390 (The Pharmacogenomics Journal, 2016).

Turning to `CN1CCc2nc(C(=O)N[C@@H]3C[C@@H](C(=O)O)CC[C@@H]3NC(=O)C(=O)Nc3ccc(Cl)cn3)sc2C1` [M4], in series [1] (setting [8]), the “geometric LS means ratio, AUCinf” value is reported as 126.9 (90% CI, 117.4–137.1); the “geometric LS means ratio, C24” value is given as 114.9 (90% CI, 104.0–127.0); the “geometric LS means ratio, Cmax” value is 124.1 (90% CI, 111.9–137.5). The C24 in series [1] (SLCO1B1 rs4149056 C-carriers, 24 h postdose, single 60-mg edoxaban, mean±s.d.) was 1.3 ± 0.74 ng/mL. Besides, in series [1] (setting [9]), the “AUC0–24” value amounted to 170.0 ± 73.0 ng·h/mL; the AUCinf is 191.9 ± 76.4 ng·h/mL; the AUClast was 184.6 ± 75.6 ng·h/mL; the Cmax (as a rule, the maximum level reached in the sampled fluid or tissue) amounted to 26.7 ± 13.6 ng/mL. Besides, the C24 in series [1] (SLCO1B1 rs4149056 TT, 24 h postdose, single 60-mg edoxaban, mean±s.d.) was found to be 1.1 ± 0.57 ng/mL. Besides, in series [1] (setting [10]), the “MPR AUCinf (metabolite to parent ratio)” value is listed as 8.7±2.9, the “MPR AUClast (metabolite to parent ratio)” value is given as 8.7±2.9 and the “MPR Cmax (metabolite to parent ratio)” value is on record as 8.8±3.1. In series [1] (setting [11]), the “AUC0–24” value is 134.7 ± 57.2 ng·h/mL, the AUCinf was 150.2 ± 61.4 ng·h/mL, the AUClast was 147.1 ± 60.7 ng·h/mL and the Cmax came out at 21.2 ± 10.7 ng/mL. The “plasma M4 concentration as share of edoxaban levels” value in series [1] (plasma, healthy subjects) was less than 10%. The “effect of SLCO1B1 T521C SNP on exposure” value in series [1] (setting [12]) is listed as “elevated among C-carriers”. Besides, in series [2], the “share of the total anticoagulant exposure” value is less than 10%. In addition, the “substrate of OATP1B1” value in series [3] is given as “substrate”. The “anticoagulant activity compared with edoxaban” value in series [4] is “similar”. For the same compound, in series [5], the “levels on coadministration of cyclosporine or rifampin” value was “increase”.
Consider `CN1CCc2nc(C(=O)N[C@@H]3C[C@@H](C(=O)N(C)C)CC[C@@H]3NC(=O)C(=O)Nc3ccc(Cl)cn3)sc2C1` [Edoxaban, edoxaban], for which the “AUC0–24” value came to 1671 ± 420.3 ng·h/mL in series [1] (setting [13]), 1643.8 ± 392.9 ng·h/mL in series [1] (setting [9]) and 1644.1 ± 440.6 ng·h/mL in series [1] (setting [11]). Also, the AUCinf in series [1] (setting [13]) amounted to 1845 ± 417.8 ng·h/mL; in series [1] (setting [9]), 1815.5 ± 382.4 ng·h/mL; in series [1] (setting [11]), 1823.5 ± 444.9 ng·h/mL. In addition, the AUC(0-t) (as a rule, the area under the concentration-time curve up to a stated or last time point) came out at 1610 ± 441 ng·h/mL in series [1] (both, human, in vivo, 60 mg, AUC0–24, ABCB1 rs1045642 CC, single 60-mg edoxaban, mean±s.d.); 1680 ± 442 ng·h/mL in series [1] (both, human, in vivo, 60 mg, AUC0–24, ABCB1 rs1045642 TT, single 60-mg edoxaban, mean±s.d.); 1760 ± 447 ng·h/mL in series [1] (both, human, in vivo, 60 mg, AUClast, ABCB1 rs1045642 CC, single 60-mg edoxaban, fasting, plasma, mean±s.d.); 1810 ± 417 ng·h/mL in series [1] (both, human, in vivo, 60 mg, AUClast, ABCB1 rs1045642 CT, single 60-mg edoxaban, fasting, plasma, mean±s.d.); 1820 ± 435 ng·h/mL in series [1] (both, human, in vivo, 60 mg, AUClast, ABCB1 rs1045642 TT, single 60-mg edoxaban, fasting, plasma, mean±s.d.); 1780 ± 381 ng·h/mL in series [1] (both, human, in vivo, 60 mg, AUClast, SLCO1B1 rs4149056 C-carriers, single 60-mg edoxaban, mean±s.d.). The same compound yielded an AUC(0-t) in series [1] (both, human, in vivo, 60 mg, AUClast, SLCO1B1 rs4149056 TT, single 60-mg edoxaban, mean±s.d.) of 1790 ± 443 ng·h/mL. In addition, the AUC(0-inf) (in general, total exposure, with the tail of the curve extrapolated) was determined as 1790 ± 450 ng·h/mL in series [1] (both, human, in vivo, 60 mg, ABCB1 rs1045642 CC, single 60-mg edoxaban, mean±s.d.) and 1860 ± 436 ng·h/mL in series [1] (both, human, in vivo, 60 mg, ABCB1 rs1045642 TT, single 60-mg edoxaban, mean±s.d.). In addition, the concentration at 24 h in series [1] (both, human, in vivo, 60 mg, C24, ABCB1 rs1045642 CC, plasma concentration at 24 h postdose, single 60-mg edoxaban, mean±s.d.) was 12.5 ± 5.11 ng/mL; in series [1] (both, human, in vivo, 60 mg, C24, ABCB1 rs1045642 TT, plasma concentration at 24 h postdose, single 60-mg edoxaban, mean±s.d.) it was 12.3 ± 6.46 ng/mL; in series [1] (both, human, in vivo, 60 mg, C24, SLCO1B1 rs4149056 C-carriers, 24 h postdose, single 60-mg edoxaban, mean±s.d.) it was 11.6 ± 4.8 ng/mL; in series [1] (both, human, in vivo, 60 mg, C24, SLCO1B1 rs4149056 TT, 24 h postdose, single 60-mg edoxaban, mean±s.d.) it was 12.3 ± 5.4 ng/mL. This compound also displayed a Cmax in series [1] (both, human, in vivo, 60 mg, Cmax, ABCB1 rs1045642 TT, single 60-mg edoxaban, mean±s.d.) of 261 ± 101 ng/mL. Also, the “effect of ABCB1 C3435T SNP on exposure” value in series [1] (setting [12]) is reported as “does not significantly affect”. In addition, in series [1] (setting [12]), the “effect of SLCO1B1 T521C SNP on exposure” value is given as “does not influence”. For the same compound, the “absorbed dose renally eliminated” value in series [2] is given as ~ 50%. In series [2], the “absorbed drug eliminated unmodified” value is listed as approximately 73%. Moreover, the “substrate of P-glycoprotein” value in series [6] was “substrate”. In addition, the tolerability entry in series [7] was “generally well tolerated”.
